The test has as its system C. albicans. Kind of test: Mouse candidosis model, antimycotic in vivo efficacy. On the set-up: species or system Männliche CF₁-SPF-Mäuse. The settings on record: mice infected i.v. with 1-3 x 10⁶ Sprosszellen von C. albicans, surviving/total animals. On the procedure: Die erfindungsgemäßen Verbindungen wurden in den Applikationsarten i.v., s.c. und orale Gabe am Modell der Mäuse-Candidose auf ihre antimykotische in vivo-Wirksamkeit geprüft: Männliche CF₁-SPF-Mäuse wurden mit 1-3 x 10⁶ Sprosszellen von C. albicans pro Tier durch Injektion der Keimsuspension in phys. NaCl-Lösung (0,2 ml/Tier) in die Schwanzvene infiziert. Nicht behandelte Kontrolltiere entwickeln unter diesen Infektionsbedingungen eine Nierencandidose und sterben zu 95-100% der eingesetzten Tiere innerhalb 6 Tagen p.i. an dieser Infektion. Wurden infizierte Tiere täglich 2 mal, beginnend mit dem Tag der Infektion, mit den erfindungsgemäßen Verbindungen oral oder parenteral in Dosen 2 x 25 bis 2 x 50 mg/kg Körpergewicht über 2 - 5 Tage behandelt, so überleben 60-90% der Tiere die Infektion in gutem Zustand. Die C.albicans-Keimzahlen in den Nieren der infizierten und behandelten Tiere liegen am 4. Tag p.i. durchschnittlich um 2 Zehnerpotenzen unter denen von unbehandelten, infizierten Kontrolltieren. Tabelle A

Where a name gives a salt, the structure may show the parent alone.

As for `N[C@H]1C=CCO[C@H]1C(=O)O` [Beispiel 17, (2R,3S)-3-Amino-2,3-dihydro-6H-pyran-2-carbonsäure-hydrochlorid], the “Zahl der überl. Tiere” value (Dosis 2 × 25 mg/kg/d, App. sc) is 3/10.

Consider `COC(=O)[C@H]1OCC=C[C@H]1N` [Beispiel 1, (2S,3R)-3-Amino-2,3-dihydro-6H-pyran-2-carbonsäuremethylester Hydrochlorid], for which the “Zahl der überl. Tiere” value (Dosis 2 × 50 mg/kg/d, App. po) is given as 7/10.

Consider `COC(=O)[C@H]1OCC=C[C@H]1NC(=O)OC(C)(C)C` [Beispiel VII], for which, for the setting “Dosis 2 × 50 mg/kg/d, App. po”, the “Zahl der überl. Tiere” value is given as 8/10.
